Marks after values point to notes of the source that are not given here.
Assays:
[1] = test system: B16-F10 murine melanoma cells; experiment: Melanogenesis inhibition assay (melanin content, absorbance at 450 nm); type: cell-based; settings: Mus musculus, 72 h, read-out: Melanogenesis % of control; for activity at 100 µM: 0.1 mmol/L; for activity at 1000 µM: 1.0 mmol/L; for activity at 500 µM: 0.5 mmol/L (footnote *)
Method: Melanocytes (B16-F10/CRL-6475 murine melanoma cells, purchased from ATCC) were cultured in Dulbecco's Modified Eagle's Medium (DMEM)/Ham's F-12 50:50 mix with L-glutamine w/out phenol red/10% (v/v) newborn calf serum/1% (v/v) 100× Invitrogen Cat #15240-062 Antibiotic-Antimycotic at 37° C. (i.e., the growth medium) in a humidified atmosphere with 5% CO2. The cells were seeded into 12.5 cm^2 tissue culture flasks at a concentration of 1.0×10^5 cells/mL. A 3-mL cell suspension (seed medium) was added to each flask. The test compounds were dissolved in dimethyl sulfoxide (DMSO) at a concentration of 0.5 M. This 0.5 M stock was used to prepare various concentrations of the test compounds in growth medium, with the final concentration of DMSO at 0.2% by weight. Growth medium with diluted test compound is referred to as the dose medium. The controls were treated in the same manner, but without the test compound. After 24 hrs of incubation, the seed medium was replaced with 3 mL of dose medium (growth medium with various concentrations of test samples or control compounds). The dose medium was […] day, and the incubation continued for an additional 2 days. The dose medium was removed. The cells were dissolved in 1 mL of 1 N NaOH during incubation at 80° C. for 10 min. Samples of extracted melanin were transferred to a 96-well plate, and the absorbance was read at 450 nm. Each experiment was repeated three times. Kojic acid, arbutin, and hydroquinone were used as positive controls.

[2] = test system: B16-F10 murine melanoma cells; experiment: Cell viability assay (MTT); type: cell-based
Method: After incubating the melanocytes with test samples or control compounds as mentioned above, 330 μL of a MTT solution (5 mg/mL MTT in standard medium with no added serum or antibiotic) was added. […] After orbital shaking for 10 min at room temperature, 1 mL of the contents of each flask was transferred to microfuge tubes and centrifuged for 10 min. 200 μL of each tube were then transferred to a 96-well plate, and the relative extent of MTT reduction was determined based on the absorbance at 590 nm. […] Kojic acid, arbutin, and hydroquinone were used as positive controls.

[3] = 0.5 mmol/L (footnote *), MTT, B16-F10 cells

SMILES | activity at 100 µM [1] | activity at 1000 µM [1] | Cell Viability % of control ([2]; 0.1 mmol/L, MTT, B16-F10 cells) | Cell Viability % of control ([2]; 1.0 mmol/L, MTT, B16-F10 cells) | activity at 500 µM [1] | other results
OC[C@H]1O[C@@H](Oc2ccc(O)cc2)[C@H](O)[C@@H](O)[C@@H]1O [Arbutin, arbutin, reference compound] | 92% | 83% | 125 % of control | 134 % of control | – | –
CC(C)(C)C(=O)Sc1ncccn1 [Example 5, Pyrimidin-2′-yl 2,2-Dimethylpropanethioate] | 66% | 28% | 91 % of control | 7 % of control | – | –
CCC(=O)Sc1ncccn1 [Example 2, Pyrimidin-2-yl Thiolpropionate] | 67% | 36% | 113 % of control | 13.6 % of control | – | –
O=C(Sc1ncccn1)c1ccncc1 [Example 8, S-Pyrimidin-2′-yl Pyridine-4-carbothioate] | 70% | – | 92 % of control | – | 38% | Cell Viability % of control [2, 3]: 36* % of control
Sc1ncccn1 [2-Mercapto-Pyrimidine, 2-Mercaptopyrimidine, reference compound] | – | – | – | – | 35% | activity at 250 µM ([1]; 0.25 mmol/L): 42%; Cell Viability % of control ([2]; 0.25 mmol/L, MTT, B16-F10 cells, no replication): 81** % of control; Cell Viability % of control [2, 3]: 68* % of control
CC(=O)Sc1ncccn1 [Example 1, Pyrimidin-2-yl Thiolacetate] | 71% | 33% | 100 % of control | 6.6 % of control | – | –
COC(=O)CSc1ncccn1 [Comparative Example 1, Methyl 2-(pyrimidin-2′-ylthio)acetate, reference compound] | 115% | 98% | 114 % of control | 117 % of control | – | –
COC(=O)CCSc1ncccn1 [Comparative Example 2, Methyl 3-(Pyrimidin-2′-ylthio)propionate, reference compound] | 98% | – | 88 % of control | – | 96% | Cell Viability % of control [2, 3]: 84* % of control
CCOC(=O)Sc1ncccn1 [Example 3, O-Ethyl-5-pyrimidin-2-yl Monothiolcarbonate] | 81% | 36% | 87 % of control | 32 % of control | – | –
Oc1ccc(O)cc1 [Hydroquinone, hydroquinone, reference compound] | – | – | – | – | 33% | Cell Viability % of control ([2]; mouse, 0.5 mmol/L): 3* % of control
O=C(Sc1ncccn1)c1cccnc1 [Example 7, S-Pyrimidin-2′-yl Pyridine-3-carbothioate] | 72% | 27% | 101 % of control | 3.5 % of control | – | –
O=c1cc(CO)occ1O [Kojic acid, reference compound] | 94% | 86% | – | – | – | Cell Viability % of control ([2]; mouse, 0.1 mmol/L): 116 % of control; Cell Viability % of control ([2]; mouse, 1 mmol/L): 92 % of control
O=C(Sc1ncccn1)c1ccccc1 [Example 6, Pyrimidin-2-yl Thiolbenzoate] | 69% | 39% | 91 % of control | 69 % of control | – | –

Source: patent US20130273183A1, “2-Pyrimidine Thioesters and Thiocarbonates as Skin Brightening Agents” (EASTMAN CHEMICAL COMPANY, priority 2012, published 2013)
